Key:
[1] = tested on: Aspergillus niger LOCK E201; assay: Antifungal activity in vitro, serial dilution in RPMI 1640; format: cell-based; details: Table 2B
How it was run: (§1)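 In buffered RPMI 1640 at pH 7.0, fungi were exposed to serially diluted compound (M27-A2 standard) and turbidity was recorded at 531 nm. Values relative to control: IC50 at 50%, MIC as lowest concentration at ≤20%.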

[2] = tested on: Candida albicans ATCC 10231; assay: as above; format: cell-based
How it was run: as §1

[3] = tested on: Candida arborea KKP 319; assay: as above; format: cell-based; details: Table 2B
How it was run: as §1

[4] = tested on: Candida dubliniensis CBS 7987; assay: as above; format: cell-based; details: Table 2B
How it was run: as §1

[5] = tested on: Candida glabrata DSM 11226; assay: as above; format: cell-based; details: Table 2A; RPMI 1640, pH 7.0
How it was run: as §1

[6] = tested on: Candida krusei DSM 6128; assay: as above; format: cell-based; details: Table 2A; RPMI 1640, pH 7.0
How it was run: as §1

[7] = tested on: Candida lipolytica KKP 322; assay: as above; format: cell-based; details: Table 2B
How it was run: as §1

[8] = tested on: Candida parapsilosis DSM 5784; assay: as above; format: cell-based; details: Table 2B
How it was run: as §1

[9] = tested on: Candida pseudotropicalis KKP 324; assay: as above; format: cell-based; details: Table 2B
How it was run: as §1

[10] = tested on: Candida quilliermondii DSM 11947; assay: as above; format: cell-based; details: Table 2B
How it was run: as §1

[11] = tested on: Candida stellatoidea CBS 1905; assay: as above; format: cell-based; details: Table 2B
How it was run: as §1

[12] = tested on: Candida tropicalis KKP 334; assay: as above; format: cell-based; details: Table 2A; RPMI 1640, pH 7.0
How it was run: as §1

[13] = tested on: Saccharomyces cerevisiae ATCC 9763; assay: as above; format: cell-based
How it was run: as §1

[14] = tested on: Trichoderma viride LOCK E159; assay: as above; format: cell-based; details: Table 2B
How it was run: as §1

[15] = tested on: Human erythrocytes; assay: Hemotoxicity (hemolytic activity)
How it was run: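 Human erythrocytes in saline (2×10^7/ml) were incubated with serially diluted compound at 37 °C for 30 min, then centrifuged. Released hemoglobin was read as A540 against 0.1% Triton X-100 as full hemolysis. EH50 is the interpolated concentration giving 50% of the control A540.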

[16] = tested on: Candida albicans 5674; assay: Antifungal activity towards resistant (MDR) strains; format: cell-based; details: C. albicans 5674 overexpressing CDR1 and CDR2
Description: (§2) The determination of antifungal activity was performed by the serial dilutions method in buffered RPMI 1640 medium, in a 96-wells microplates, according to the standard procedure (National Committee for Clinical Laboratory Standards. Reference method for broth dilution antifungal susceptibility testing of yeast, approved standard, 2nd ed. M27-A2 vol. 22 Wayne, Pa., 2002). The optical density of cells suspension was measured using a microplates reader (Victor^3, Perkin-Elmer) at the wavelength λ=660 nm (A660). On the basis of received results the diagrams on interrelation between the A660 value and the concentration of tested compound were made. From these graphs MIC values were read, that are the concentrations of tested compounds, in the presence at which A660 value is at most 20% of A660 value measured in control sample.

[17] = tested on: Candida albicans B3; assay: as above; format: cell-based; details: fluconazole sensitive, parent strain for B4
Description: as §2

[18] = tested on: Candida albicans B4; assay: as above; format: cell-based; details: fluconazole-resistant due to the overexpression of CaMDR1
Description: as §2

[19] = tested on: Candida albicans F2; assay: as above; format: cell-based; details: fluconazole sensitive, parent strain for F5
Description: as §2

[20] = tested on: Candida albicans F5; assay: as above; format: cell-based; details: fluconazole-resistant due to the overexpression of CaMDR1 and ERG11
Description: as §2

[21] = tested on: Candida albicans Gu4; assay: as above; format: cell-based; details: fluconazole sensitive, parent strain for Gu5
Description: as §2

[22] = tested on: Candida albicans Gu5; assay: as above; format: cell-based; details: fluconazole-resistant due to the overexpression of CDR1 and CDR2
Description: as §2

[23] = tested on: Candida albicans STY19; assay: as above; format: cell-based; details: 5674 mutant derivative, deletion of CDR1
Description: as §2

[24] = tested on: Candida albicans STY31; assay: as above; format: cell-based; details: 5674 mutant derivative, deletion of CDR1 and CDR2
Description: as §2

[25] = tested on: Candida albicans STY7; assay: as above; format: cell-based; details: 5674 mutant derivative, deletion of CDR2
Description: as §2

[26] = tested on: CCRF-CEM; assay: Cytotoxic activity against mammalian cells in tissue culture (MTT); format: cell-based, human
How it was run: (§3)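 Cells at 1.2×10^4/well were exposed to serial 2× DMSO dilutions for 120 h at 37 °C: CCRF-CEM in RPMI 1640 + 10% FBS, HepG2 in MEM + 10% FBS, LLC-PK1 in Medium 199 + 3% FBS. MTT was added for 4 h and A540 read. IC50 is the concentration halving A540 versus DMSO control.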

[27] = tested on: HepG2; assay: as above; format: cell-based, human
How it was run: as §3

[28] = tested on: LLC-PK1; assay: as above; format: cell-based, pig
How it was run: as §3

[29] = Table 2A, RPMI 1640, pH 7.0, A531 at most 20% of control

CC1OC(O[C@H]2/C=C/C=C/C=C/C=C/CC/C=C/C=C/[C@H](C)[C@@H](O)[C@@H](C)[C@H](C)OC(=O)C[C@H](O)C[C@H](O)C[C@H](O)CC[C@@H](O)[C@H](O)CC3(O)C[C@H](O)[C@@H](C(=O)O)[C@H](C2)O3)C(O)C(NC(=O)[C@H](N)CC(=O)OC(C)(C)C)C1O (stereo partly drawn) [Compound N41, N-D-(O-tert-butyl)asparagylnystatin A1]
4.69 µg/mL: Antifungal activity Candida albicans ATCC 10231 IC50 ([2]; Table 2A, RPMI 1640, pH 7.0, A531 50% of control)
0.15%: % of hemolysis at the concentration 60 μg ml^−1 [15]
2 µg/mL: MIC Candida dubliniensis CBS 7987 [4]
>100 µg/mL: Cytotoxicity IC50 CCRF-CEM [26] | Cytotoxicity IC50 HepG2 [27] | Cytotoxicity IC50 LLC-PK1 [28]
8 µg/mL: MIC Aspergillus niger LOCK E201 [1] | Antifungal activity Candida albicans ATCC 10231 MIC [2, 29] | MIC Candida albicans ATCC 10231 ([2]; Table 2B) | MIC Candida arborea KKP 319 [3] | Antifungal activity Candida glabrata DSM 11226 MIC [5] | Antifungal activity Candida krusei DSM 6128 MIC [6] | MIC Candida lipolytica KKP 322 [7] | MIC Candida parapsilosis DSM 5784 [8] | MIC Candida quilliermondii DSM 11947 [10] | MIC Candida albicans B3 [17] | MIC Candida albicans Gu4 [21] | MIC Candida albicans Gu5 [22]
32 µg/mL: MIC Trichoderma viride LOCK E159 [14]
16 µg/mL: MIC Candida albicans 5674 [16] | MIC Candida albicans B4 [18] | MIC Candida albicans F2 [19] | MIC Candida albicans F5 [20] | MIC Candida albicans STY31 [24] | MIC Candida albicans STY7 [25]
0.5 µg/mL: MIC Candida albicans STY19 [23]
4 µg/mL: MIC Candida pseudotropicalis KKP 324 [9] | MIC Candida stellatoidea CBS 1905 [11] | Antifungal activity Candida tropicalis KKP 334 MIC [12] | Antifungal activity Saccharomyces cerevisiae ATCC 9763 MIC [13, 29] | MIC Saccharomyces cerevisiae ATCC 9763 ([13]; Table 2B)

Reference: patent US9447136B2, “Semisynthetic derivatives of Nystatin A1” (BLIRT S.A., priority 2012, dated 2016)
